Numbered stars: 1 amine (or outer) side, 2 acyl side, 3 side chain; on linkers, the order of the positions; unused ones are H or OH. Square brackets hold non-standard residues; d marks the D form. Side chains are listed from the residue outwards. Peptide text beside a SMILES is read from it. * marks the point of attachment. ξ: configuration not given here. Ethylenediamine = C(CN[*:2])N[*:1]; Hyp = O=C(O)[C@@H]1C[C@@H](O)CN1; ξPhg = NC(C(=O)O)c1ccccc1; CO = O=C([*:1])[*:2]; Bn = c1ccc(C*)cc1
Tests used:
[1] = Previous experiments: glucose increase after pasireotide injection; type: in vivo; details: rats
Description: Based on previous experiments in rats it was known that acute injection of pasireotide causes an increase in glucose, which was rapid in onset (within 30 min after injection), reached its peak between 1 and 3 h and returned to baseline values after 6-8 h. […] Therefore only moderate increases in glucose have been observed after repeated or long-term treatment with pasireotide mainly on the first day(s) of treatment. […] In order to investigate the efficacy of both compounds and their combination on a relevant parameter in rats plasma GH and IGF-1 levels as well as body weight were determined in rats within 14 days of continuous infusion with the compounds. […] Due to the known pulsatile release pattern of GH and the low sensitivity of the available GH RIA, levels of IGF-1 and body weight (BW) are more reliable parameters to determine efficacy of a compound on the GH/IGF-1 system. GH and IGF-1 are both growth factors which are responsible for growth of animals and humans and lack of these factors result in growth retardation in animals which are still growing (like in rats). […] Unlike the rapid changes in glucose levels, changes in IGF-1 levels are only observed after 1-2 days of treatment with somatostatin analogues.

[2] = in vivo; cited from earlier work
[3] = Short term experiment: acute s.c. injection, blood glucose AUC; type: in vivo, adult male Lewis rats; details: 10 μg/kg s.c., rats, within 1 hour after injection
Description: Effect of an acute s.c. injection of octreotide and pasireotide in rats (1 and 10 μg/kg) and different combinations thereof on the accumulated glucose levels between 0 and 1 hour after the injection (n=6 animals per group).
In the short term experiment octreotide and pasireotide and their combination were s.c. injected in rats in 1 ml saline. Blood samples were taken by sublingual bleeding the rats 15 min, 30 min, 1 h, 3 h, 6 h and 8 h after the injection and blood glucose was determined using ACCU-Chek Compact (Roche), which was newly calibrated before each measurement. In order to determine the overall effect of the treatment on glucose the area under the curve (AUC) was determined using GraphPad Prizm. 4.0.

[4] = Long-term s.c. infusion by osmotic minipumps, plasma glucose concentration; type: in vivo, adult male Lewis rats; details: 3 and 10 μg/kg/h alone, rats
Description: Effect of long term application of octreotide and pasireotide alone and in combination on plasma glucose concentration in rats. Compounds were continuously infused by osmotic minipumps at 3 and 10 μg/kg/h for the single compounds and at 1.5, 5 and 10 μg/kg/h for the combinations. Plasma glucose levels were determined one day before and 1, 7 and 14 days after minipumps implantation.
In the long-term experiments octreotide and pasireotide and their combination were s.c. infused in rats using osmotic minipumps (Alzet model: 2002). Blood samples were taken by sublingual bleeding on the day before minipump implantation and after 1, 7 and 14 days.

| Compound | onset of increase in glucose after injection ([1]; acute injection) | return of glucose to baseline values ([1]; acute injection) | glucose response on repeated or long term injections ([1]; repeated or long term injections) | t1/2 [2] | change of AUC glucose levels vs. control [3] | plasma level of glucose ([4]; continuous infusion, day 1 and 7 of treatment) | plasma glucose ([4]; continuous infusion for 14 days) |
| --- | --- | --- | --- | --- | --- | --- | --- |
| NCCCC[C@@H]1NC(=O)[C@@H](Cc2c[nH]c3ccccc23)NC(=O)C(c2ccccc2)NC(=O)[C@@H]2C[C@@H](OC(=O)NCCN)CN2C(=O)[C@H](Cc2ccccc2)NC(=O)[C@H](Cc2ccc(OCc3ccccc3)cc2)NC1=O (stereo partly drawn) [pasireotide, cyclo[{4-(NH2—C2H4—NH—CO—O—)Pro}-Phg-DTrp-Lys-Tyr(4-Bzl)-Phe]] (cyclo(F[Hyp]([CO-Ethylenediamine])[ξPhg][dW]KY(Bn))) | ≤ 30 min | 6 to 8 h | strong tachyphylaxis | 11 h | 56% | slightly, but significantly increased |  |
| C[C@@H](O)[C@@H]1NC(=O)[C@H](CCCCN)NC(=O)[C@@H](Cc2c[nH]c3ccccc23)NC(=O)[C@H](Cc2ccccc2)NC(=O)[C@@H](NC(=O)[C@H](N)Cc2ccccc2)CSSC[C@@H](C(=O)N[C@H](CO)[C@@H](C)O)NC1=O [octreotide] |  |  |  |  | no effect |  | no effect or caused a small but significant reduction |

— patent US8450272B2, “Combinations of somatostatin-analogs with different selectivity for human somatostatin receptor subtypes” (priority 2006, dated 2013)
